The values below come from patent US8461328B2, “Tricyclic heterocyclic compounds, compositions and methods of use thereof” (Genentech, Inc., priority 2010, dated 2013).

SMILES strings stand for the structures.

What all share (format): biochemical
For one assay, the target named is T1, JAK2 (Homo sapiens, UniProt O60674).
T1 construct: made in house; host or cells: SF9 insect cells (baculovirus)
Description: JAK2 inhibition (Table 4). The note with it: read-out: JAK2 Ki.

Another assay addresses T2, JAK1 (Homo sapiens, UniProt P23458).
T2 construct: made in house; host or cells: SF9 insect cells (baculovirus)
Description: JAK1 inhibition (Table 4). The note with it: read-out: JAK1 Ki.

The next assay has as its target T3, JAK3 (Homo sapiens, UniProt P52333).
T3 construct: made in house; host or cells: SF9 insect cells (baculovirus)
Description: JAK3 inhibition (Table 4). To be noted: read-out: JAK3 Ki.

A further assay deals with T4, TYK2 (Homo sapiens, UniProt P29597).
T4 construct: made in house; host or cells: SF9 insect cells (baculovirus)
T4 sequence (P29597 873-1187): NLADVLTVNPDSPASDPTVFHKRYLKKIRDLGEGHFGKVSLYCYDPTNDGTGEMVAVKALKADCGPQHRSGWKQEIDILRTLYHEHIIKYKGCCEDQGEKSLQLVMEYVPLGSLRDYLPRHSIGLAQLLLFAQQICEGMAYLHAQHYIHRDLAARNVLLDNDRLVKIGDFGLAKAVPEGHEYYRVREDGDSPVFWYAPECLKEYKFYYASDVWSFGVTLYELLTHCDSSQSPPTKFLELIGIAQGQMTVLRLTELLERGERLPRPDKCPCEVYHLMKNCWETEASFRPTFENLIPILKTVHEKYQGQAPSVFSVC
Description: TYK2 inhibition (Table 4).

T1 sequence (O60674 812-1132): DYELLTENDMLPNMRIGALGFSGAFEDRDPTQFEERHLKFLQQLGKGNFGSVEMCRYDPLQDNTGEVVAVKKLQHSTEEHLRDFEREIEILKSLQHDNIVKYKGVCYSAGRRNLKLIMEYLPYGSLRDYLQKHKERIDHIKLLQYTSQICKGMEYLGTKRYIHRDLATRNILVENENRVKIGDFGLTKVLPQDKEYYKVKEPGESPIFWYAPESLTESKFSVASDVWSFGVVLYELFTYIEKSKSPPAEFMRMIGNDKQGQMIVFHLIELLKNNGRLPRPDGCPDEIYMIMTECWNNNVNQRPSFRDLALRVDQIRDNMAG
T2 sequence (P23458 852-1154): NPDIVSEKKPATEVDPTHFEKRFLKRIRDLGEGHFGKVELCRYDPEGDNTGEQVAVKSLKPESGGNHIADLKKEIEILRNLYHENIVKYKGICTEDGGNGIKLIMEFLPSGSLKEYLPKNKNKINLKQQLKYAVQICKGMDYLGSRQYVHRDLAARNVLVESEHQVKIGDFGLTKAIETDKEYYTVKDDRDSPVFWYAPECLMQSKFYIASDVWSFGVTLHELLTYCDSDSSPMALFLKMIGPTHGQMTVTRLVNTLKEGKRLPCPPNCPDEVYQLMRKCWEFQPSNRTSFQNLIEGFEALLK
T3 sequence (P52333 783-1124): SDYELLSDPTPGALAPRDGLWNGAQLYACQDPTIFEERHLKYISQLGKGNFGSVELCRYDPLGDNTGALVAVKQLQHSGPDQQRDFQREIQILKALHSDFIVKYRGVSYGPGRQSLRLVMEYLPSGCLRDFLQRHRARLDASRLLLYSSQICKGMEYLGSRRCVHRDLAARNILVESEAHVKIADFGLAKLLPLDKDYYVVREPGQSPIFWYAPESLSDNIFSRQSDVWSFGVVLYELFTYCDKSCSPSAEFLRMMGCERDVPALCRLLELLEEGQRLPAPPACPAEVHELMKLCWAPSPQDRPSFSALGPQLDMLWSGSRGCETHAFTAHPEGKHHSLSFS

In general, Ki refers to the dissociation constant of the complex between target and ligand, obtained from inhibition or displacement. As for `O=C(Cc1nc2cnc3[nH]ccc3c2n1C1CCCOC1)N1CCC(F)(F)CC1` (racemic) [Example 978, 1-(4,4-Difluoro-piperidin-1-yl)-2-[1-(tetrahydro-pyran-3-yl)-1,6-dihydro-1,3,5,6-tetraaza-as-indacen-2-yl]-ethanone], the inhibitory constant (Ki) at JAK2 amounted to 305 nM; on JAK1, 17.4 nM; on JAK3, 124 nM; on TYK2, 157 nM.

In the case of `O=C(Cc1nc2cnc3[nH]ccc3c2n1C1CCCOC1)N1CCS(=O)(=O)CC1` (racemic) [Example 979, 1-(1,1-Dioxo-1$1%6&-thiomorpholin-4-yl)-2-[1-(tetrahydro-pyran-3-yl)-1,6-dihydro-1,3,5,6-tetraaza-as-indacen-2-yl]-ethanone], the inhibition constant Ki on JAK2 stood at 238 nM; at JAK1, 15.5 nM; on JAK3 it was 127 nM; on TYK2 it was 113 nM.

For `O=C(Cc1nc2cnc3[nH]ccc3c2n1C1CCCOC1)N1CCCOCC1` (racemic) [Example 980, 1-[1,4]Oxazepan-4-yl-2-[1-(tetrahydro-pyran-3-yl)-1,6-dihydro-1,3,5,6-tetraaza-as-indacen-2-yl]-ethanone], the inhibition constant (Ki) at JAK2 was 506 nM; at JAK1, 78.8 nM; at JAK3 it was 300 nM; at TYK2 it was 109 nM.

As for `CN1CCC(NC(=O)Cc2nc3cnc4[nH]ccc4c3n2C2CCCOC2)CC1` (racemic) [Example 981, N-(1-Methyl-piperidin-4-yl)-2-[1-(tetrahydro-pyran-3-yl)-1,6-dihydro-1,3,5,6-tetraaza-as-indacen-2-yl]-acetamide], the Ki on JAK2 was determined as 177 nM; on JAK1, 66 nM; at JAK3 it was 162 nM; on TYK2, 376 nM.

With `O=C(Cc1nc2cnc3[nH]ccc3c2n1C1CCCOC1)N1CCCC(O)C1` (racemic) [Example 982, 1-(3-Hydroxy-piperidin-1-yl)-2-[1-(tetrahydro-pyran-3-yl)-1,6-dihydro-1,3,5,6-tetraaza-as-indacen-2-yl]-ethanone], the inhibitory constant (Ki) at JAK2 was determined as 307 nM; at JAK1, 34.3 nM; on JAK3 it was 159 nM; on TYK2 it was 273 nM.

Turning to `O=C(Cc1nc2cnc3[nH]ccc3c2n1C1CCCOC1)NC1CCOCC1` (racemic) [Example 983, N-(Tetrahydro-pyran-4-yl)-2-[1-(tetrahydro-pyran-3-yl)-1,6-dihydro-1,3,5,6-tetraaza-as-indacen-2-yl]-acetamide], the Ki stood at 157 nM on JAK2, 37.6 nM at JAK1, 100 nM at JAK3 and 300 nM at TYK2.

In the case of `O=C(Cc1nc2cnc3[nH]ccc3c2n1C1CCCOC1)N1CCC(CO)CC1` (racemic) [Example 984, 1-(4-Hydroxymethyl-piperidin-1-yl)-2-[1-(tetrahydro-pyran-3-yl)-1,6-dihydro-1,3,5,6-tetraaza-as-indacen-2-yl]-ethanone], the inhibition constant Ki on JAK2 amounted to 295 nM; on JAK1 it was 17.7 nM; on JAK3 it was 173 nM; on TYK2 it was 253 nM.

For the molecule `O=C(Cc1nc2cnc3[nH]ccc3c2n1C1CCCOC1)N1CCSCC1` (racemic) [Example 985, 2-[1-(Tetrahydro-pyran-3-yl)-1,6-dihydro-1,3,5,6-tetraaza-as-indacen-2-yl]-1-thiomorpholin-4-yl-ethanone], the Ki on JAK2 worked out at 366 nM; on JAK1, 19.6 nM; at JAK3 it was 146 nM; on TYK2, 175 nM.

Consider `O=C(Cc1nc2cnc3[nH]ccc3c2n1C1CCCOC1)N1CCC(O)CC1` (racemic) [Example 986, 1-(4-Hydroxy-piperidin-1-yl)-2-[1-(tetrahydro-pyran-3-yl)-1,6-dihydro-1,3,5,6-tetraaza-as-indacen-2-yl]-ethanone], for which the Ki on JAK2 worked out at 314 nM; on JAK1 it was 17.5 nM; on JAK3, 171 nM; on TYK2 it was 187 nM.

As for `Cc1nc2cnc3[nH]ccc3c2n1C1CCCCNC1` (racemic) [Example 987, 1-Azepan-3-yl-2-methyl-1,6-dihydro-1,3,5,6-tetraaza-as-indacene], the inhibition constant Ki on JAK2 was 208 nM; on JAK1, 39.7 nM; on JAK3 it was 643 nM; at TYK2, 267 nM.

For the molecule `N#CCC(=O)N1CCCCC(n2cnc3cnc4[nH]ccc4c32)C1` (racemic) [Example 988, 3-Oxo-3-[3-(6H-1,3,5,6-tetraaza-as-indacen-1-yl)-azepan-1-yl]-propionitrile], the Ki at JAK2 was determined as 6.23 nM; at JAK1, 4.19 nM; on JAK3 it was 9.33 nM; at TYK2, 29.1 nM.

On to `N#CCCN1CCCCC(n2cnc3cnc4[nH]ccc4c32)C1` (racemic) [Example 989, 3-[3-(6H-1,3,5,6-Tetraaza-as-indacen-1-yl)-azepan-1-yl]-propionitrile], for which the inhibition constant (Ki) at JAK2 worked out at 14.6 nM; at JAK1 it was 10.9 nM; at JAK3, 39.4 nM; on TYK2 it was 42 nM.

Take `Cc1nc2cnc3[nH]ccc3c2n1C1CCc2nc[nH]c2C1` (racemic) [Example 990, 2-Methyl-1-(4,5,6,7-tetrahydro-3H-benzoimidazol-5-yl)-1,6-dihydro-1,3,5,6-tetraaza-as-indacene]: the inhibition constant (Ki) on JAK2 amounted to 204 nM; on JAK1 it was 84.6 nM; on JAK3, 91.9 nM; on TYK2, 325 nM.

Consider `N#CCCn1cc2c(n1)CCC(n1cnc3cnc4[nH]ccc4c31)C2` (racemic) [Example 991, 3-[5-(6H-1,3,5,6-Tetraaza-as-indacen-1-yl)-4,5,6,7-tetrahydro-indazol-2-yl]-propionitrile], for which the inhibition constant (Ki) on JAK2 is 11.7 nM; at JAK1, 9.26 nM; at JAK3, 109 nM; on TYK2 it was 58.6 nM.

`C[C@@H](O)c1nc2cnc3[nH]ccc3c2n1[C@H]1CC[C@@H](N2CCC(C#N)CC2)CC1` (relative stereo) [Example 611, Cis 1-{4-[2-(1-hydroxy-ethyl)-6H-1,2,3,5,6-tetraaza-as-indacen-1-yl]-cyclohexyl}-piperidine-4-carbonitrile]: the inhibition constant (Ki) at JAK2 worked out at 142 nM; at JAK1, 6.89 nM; at JAK3, 139 nM; on TYK2, 49.6 nM.

As for `Cc1nc2cnc3[nH]ccc3c2n1[C@@H]1C[C@@H]2CC[C@H]1O2` (relative stereo) [Example 684, Endo-2-Methyl-1-(7-oxa-bicyclo[2.2.1]hept-2-yl)-1,6-dihydro-1,2,3,5,6-tetraaza-as-indacene], the Ki on JAK2 worked out at 21.6 nM; on JAK1, 7.57 nM; on JAK3, 11.5 nM; at TYK2 it was 37.8 nM.

For the molecule `c1cc2c(ncc3ncn(C4CCCCNC4)c32)[nH]1` (single isomer, unassigned) [Example 110, 1-Azepan-3-yl-1,6-dihydro-1,2,3,5,6-tetraaza-as-indacene], the inhibitory constant (Ki) on JAK2 is 292 nM; on JAK1, 154 nM; at JAK3, 704 nM; at TYK2, 647 nM.

In the case of `c1cc2c(ncc3ncn(C4CCCCNC4)c32)[nH]1` (single isomer, unassigned) [Example 110a, 1-Azepan-3-yl-1,6-dihydro-1,2,3,5,6-tetraaza-as-indacene], the inhibition constant Ki at JAK2 is 81.8 nM; on JAK1 it was 13.6 nM; at JAK3, 194 nM; at TYK2, 106 nM.

As to `Cc1nc2cnc3[nH]ccc3c2n1C1CCC2CC(=O)NC2C1` (single isomer, unassigned) [Example 112, 6-(2-Methyl-6H-1,2,3,5,6-tetraaza-as-indacen-1-yl)-octahydro-indol-2-one], the Ki on JAK2 came to 10.8 nM; at JAK1, 4.09 nM; at JAK3, 63.4 nM; on TYK2, 17.5 nM.

For `Cc1nc2cnc3[nH]ccc3c2n1C1CCC2CC(=O)NC2C1` (single isomer, unassigned) [Example 112a, 6-(2-Methyl-6H-1,2,3,5,6-tetraaza-as-indacen-1-yl)-octahydro-indol-2-one], the Ki was 58.3 nM on JAK2, 64.4 nM at JAK1, 300 nM on JAK3 and 630 nM on TYK2.

`CCC(COC)n1c(C(C)O)nc2cnc3[nH]ccc3c21` (single isomer, unassigned) [Example 182, 1-[1-(1-Methoxymethyl-propyl)-1,6-dihydro-1,2,3,5,6-tetraaza-as-indacen-2-yl]-ethanol]: the Ki was determined as 435 nM at JAK2, 167 nM on JAK1, 154 nM on JAK3 and 955 nM at TYK2.

As to `CCC(COC)n1c(C(C)O)nc2cnc3[nH]ccc3c21` (single isomer, unassigned) [Example 182a, 1-[1-(1-Methoxymethyl-propyl)-1,6-dihydro-1,2,3,5,6-tetraaza-as-indacen-2-yl]-ethanol], the Ki worked out at 888 nM at JAK2, 291 nM at JAK1, 351 nM on JAK3 and 3180 nM on TYK2.

On to `CN1CCOCC1C(=O)N1CCC(n2cnc3cnc4[nH]ccc4c32)CC1` (single isomer, unassigned) [Example 197, (4-Methyl-morpholin-3-yl)-[4-(6H-1,2,3,5,6-tetraaza-as-indacen-1-yl)-piperidin-1-yl]-methanone], for which the inhibition constant Ki on JAK2 stood at 202 nM; on JAK1, 32.5 nM; at JAK3, 3240 nM; on TYK2, 667 nM.
